Eight compounds from ChEMBL document CHEMBL1150000, “Purine 2, 3-acyclonucleosides: Improved synthesis and antiparasitic actimity” (Bioorg Med Chem Lett, 1995) can be followed below.

Activity calls are given as the source filed them. The calls are words filed in the database; no cut-off is given here.

Test [1] relates to Trypanosoma brucei. Put plainly: In vitro inhibitory activity against Trypanosoma brucei; Inactive. Format: functional, organism-based.
The test system of the next test is Leishmania donovani. The experiment in a line: In vitro inhibitory activity against Leishmania donovani; Inactive. Format: functional, organism-based.
Test [2] deals with Trypanosoma brucei. The experiment in a line: In vitro inhibitory activity against Trypanosoma brucei. Format: functional, organism-based.
The next test concerns Trypanosoma cruzi. The experiment in a line: In vitro inhibitory activity against growth of Trypanosoma cruzi at a concentration of 30 uM; 20-40%. Format: functional. Conditions: read-out: GI.

`OCC(CO)OC(CO)n1cnc2c(O)ncnc21` (stereo unspecified) yielded an IC50 in the test with Trypanosoma brucei [1] not below 100 µM. The result in the test with Leishmania donovani was inactive.
With `Nc1ncnc2c1ncn2C(CO)OC(CO)CSCCO` (stereo unspecified), the IC50 in the test on Trypanosoma brucei [1] was not below 100 µM. In addition, the result in the test on Leishmania donovani was inactive.
With `CC(=O)OCC(CO)OC(COC(C)=O)n1cnc2c(N)ncnc21` (stereo unspecified), the result in the test on Leishmania donovani was inactive. The concentration for half-maximal inhibition (IC50) in the test on Trypanosoma brucei [2] worked out at 7 µM.
Take `CC(=O)OCC(COC(C)=O)OC(COC(C)=O)n1cnc2c(O)ncnc21` (stereo unspecified): the result in the test with Leishmania donovani was inactive. In addition, it took 5.4 µM to reach half-maximal inhibition with Trypanosoma brucei [2] (IC50).
For `Nc1ncnc2c1ncn2C(CO)OC(CO)CO` (stereo unspecified), the IC50 in the test on Trypanosoma brucei [1] was not below 100 µM. Also, in the test with Leishmania donovani, the outcome was inactive.
Consider `CC(=O)OCCSCC(COC(C)=O)OC(COC(C)=O)n1cnc2c(N)ncnc21` (stereo unspecified), for which the result in the test with Leishmania donovani was inactive. In the test with Trypanosoma brucei [2], this compound registered a concentration for half-maximal inhibition (IC50) of 5.3 µM.
Consider `Nc1ncnc2c1ncn2C(CO)OC(CO)CCl` (stereo unspecified), for which the result in the test on Leishmania donovani was inactive. Further, the inhibition of growth at 30 µM in the test on Trypanosoma cruzi is 40%.
In the case of `CCC(CO)OC(CO)n1cnc2c(N)ncnc21` (stereo unspecified), the outcome in the test on Leishmania donovani was inactive. The inhibition of growth at 30 µM in the test with Trypanosoma cruzi worked out at 40%.

For orientation: IC50 means the concentration that gives 50% inhibition. Low readings indicate inhibition by little substance, high ones a need for much substance.
